Counter-ions that a name gives are not always drawn.
Assays:
[1] = target: human PLK4 (Homo sapiens (Human), UniProt O00444); assay: PLK4 inhibition assay (indirect ELISA); assay type: biochemical; details: read-out: PLK4 IC50 Ranges
[2] = target: Aurora B (Homo sapiens (Human), UniProt Q96GD4); assay: Aurora B inhibition assay (Z-Lyte); assay type: biochemical; details: read-out: Aurora B IC50 Ranges
Aurora B, sequence (Q96GD4 whole entry): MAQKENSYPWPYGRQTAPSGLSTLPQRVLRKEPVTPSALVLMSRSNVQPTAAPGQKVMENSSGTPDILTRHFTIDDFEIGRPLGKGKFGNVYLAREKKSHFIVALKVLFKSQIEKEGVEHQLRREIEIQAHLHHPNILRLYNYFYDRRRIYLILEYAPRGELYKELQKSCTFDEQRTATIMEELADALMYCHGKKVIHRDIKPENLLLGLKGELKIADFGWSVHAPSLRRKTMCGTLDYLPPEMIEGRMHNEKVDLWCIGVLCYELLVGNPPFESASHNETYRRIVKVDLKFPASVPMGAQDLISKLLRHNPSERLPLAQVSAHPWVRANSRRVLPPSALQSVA

human PLK4, sequence (O00444 1-391): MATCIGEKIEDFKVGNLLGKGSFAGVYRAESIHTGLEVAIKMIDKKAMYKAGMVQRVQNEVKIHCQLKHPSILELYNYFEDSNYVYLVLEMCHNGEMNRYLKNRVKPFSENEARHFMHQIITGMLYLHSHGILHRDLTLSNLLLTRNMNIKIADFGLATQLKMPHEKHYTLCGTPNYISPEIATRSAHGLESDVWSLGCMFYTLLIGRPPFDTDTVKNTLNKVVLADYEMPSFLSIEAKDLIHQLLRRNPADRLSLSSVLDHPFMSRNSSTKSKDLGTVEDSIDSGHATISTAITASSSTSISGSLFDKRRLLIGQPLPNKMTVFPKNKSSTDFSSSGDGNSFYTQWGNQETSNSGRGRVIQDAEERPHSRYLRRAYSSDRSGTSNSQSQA

Row | IC50 [1] | IC50 [2] | SMILES
1 | < 100 nM | < 100 nM | COc1ccc2c(c1)[C@]1(C[C@H]1c1ccc3c(-c4ccc(N5CCNCC5)cc4)n[nH]c3c1)C(=O)N2C [Example A101, (1R,2S)-5′-methoxy-1′-methyl-2-(3-(4-(piperazin-1-yl)phenyl)-1H-indazol-6-yl)spiro[cyclopropane-1,3′-indolin]-2′-one 2,2,2-trifluoroacetate]
2 | < 100 nM | < 100 nM | COc1ccc2c(c1)[C@]1(C[C@H]1c1ccc3c(-c4ccc(N5CCN(C)CC5)nc4)n[nH]c3c1)C(=O)N2C (relative stereo) [Example A104, (1R*,2S*)-5′-methoxy-1′-methyl-2-(3-(6-(4-methylpiperazin-1-yl)pyridin-3-yl)-1H-indazol-6-yl)spiro[cyclopropane-1,3′-indolin]-2′-one bis(2,2,2-trifluoroacetate)]
3 | < 100 nM | 100 to 1000 nM | COc1ccc2c(c1)[C@]1(C[C@H]1c1ccc3c(I)n[nH]c3c1)C(=O)N2 [Example A7, (1R,2S)-2-(3-iodo-1H-indazol-6-yl)-5′-methoxyspiro[cyclopropane-1,3′-indolin]-2′-one]
4 | < 100 nM | < 100 nM | CN1CCN(c2ccc(-c3n[nH]c4cc([C@@H]5C[C@@]56C(=O)N(C)c5ccccc56)ccc34)cn2)CC1 (relative stereo) [Example A93, (1R*,2S*)-1′-methyl-2-(3-(6-(4-methylpiperazin-1-yl)pyridin-3-yl)-1H-indazol-6-yl)spiro[cyclopropane-1,3′-indolin]-2′-one bis(2,2,2-trifluoroacetate)]
5 | < 100 nM | < 100 nM | CN1CCN(c2ccc(/C=C/c3n[nH]c4cc([C@@H]5C[C@@]56C(=O)N(C)c5ccccc56)ccc34)cn2)CC1 [Example A110, (1R,2S)-1′-methyl-2-(3-((E)-2-(6-(4-methylpiperazin-1-yl)pyridin-3-yl)vinyl)-1H-indazol-6-yl)spiro[cyclopropane-1,3′-indolin]-2′-one bis(2,2,2-trifluoro acetate)]
6 | < 100 nM | < 100 nM | O=C1Nc2ccccc2[C@]12C[C@H]2c1ccc2c(/C=C/c3ccccn3)n[nH]c2c1 (relative stereo) [Example A53, (1R*,2S*)-2-(3-((E)-2-(pyridin-2-yl)vinyl)-1H-indazol-6-yl)spiro[cyclopropane-1,3′-indolin]-2′-one]
7 | < 100 nM | < 100 nM | COc1ccc2c(c1)[C@]1(C[C@H]1c1ccc3c(C#Cc4cccnc4)n[nH]c3c1)C(=O)N2 (relative stereo) [Example A52, (1R*,2S*)- and (1R*,2S*)-5′-methoxy-2-(3-(pyridin-3-ethynyl)-1H-indazol-6-yl)spiro[cyclopropane-1,3′-indolin]-2′-one]
8 | < 100 nM | 100 to 1000 nM | N#Cc1ccc(/C=C/c2n[nH]c3cc([C@@H]4C[C@@]45C(=O)Nc4ccccc45)ccc23)cc1 (relative stereo) [Example A54, 4-((E)-2-(6-((1R*,2S*)-2′-oxospiro[cyclopropane-1,3′-indoline]-2-yl)-1H-indazol-3-yl)vinyl)benzonitrile]
9 | < 100 nM | < 100 nM | O=C1Nc2ccccc2[C@]12C[C@H]2c1ccc2c(/C=C/c3cc(F)c(CN4CCOCC4)c(F)c3)n[nH]c2c1 [Example A116, (1R,2S)-(E)-2-(3-(3,5-difluoro-4-(morpholinomethyl)styryl)-1H-indazol-6-yl)spiro[cyclopropane-1,3′-indolin]-2′-one 2,2,2-trifluoroacetate]
10 | < 100 nM | < 100 nM | COc1ccc2c(c1)[C@]1(C[C@H]1c1ccc3c(/C=C/c4ccc(N5CCN(C)CC5)cc4)n[nH]c3c1)C(=O)N2 (relative stereo) [Example A174, (1R*,2S*)-(E)-5′-methoxy-2-(3-(4-(4-methylpiperazin-1-yl)styryl)-1H-indazol-6-yl)spiro[cyclopropane-1,3′-indolin]-2′-one 2,2,2-trifluoroacetate]
11 | < 100 nM | < 100 nM | COc1ccc2c(c1)[C@]1(C[C@H]1c1ccc3c(-c4ccnc(N5CCN(C)CC5)c4)n[nH]c3c1)C(=O)N2 (relative stereo) [Example A37, (1R*,2S*)-5′-Methoxy-2-(3-(2-(4-methylpiperazin-1-yl)pyridin-4-yl)-1H-indazol-6-yl)spiro[cyclopropane-1,3′-indolin]-2′-one]
12 | < 100 nM | < 100 nM | CCN1CCN(c2ccc(/C=C/c3n[nH]c4cc([C@@H]5C[C@@]56C(=O)Nc5ccc(OC)cc56)ccc34)cc2)CC1 [Example A187, (1R,2S)-(E)-2-(3-(4-(4-ethylpiperazin-1-yl)styryl)-1H-indazol-6-yl)-5′-methoxyspiro[cyclopropane-1,3′-indolin]-2′-one 2,2,2-trifluoroacetate]
13 | < 100 nM | < 100 nM | CN1CCc2cc(/C=C/c3n[nH]c4cc([C@@H]5C[C@@]56C(=O)Nc5ccccc56)ccc34)ccc2C1 [Example A74, (1R,2S)-2-(3-((E)-2-(2-methyl-1,2,3,4-tetrahydroisoquinolin-6-yl)vinyl)-1H-indazol-6-yl)spiro[cyclopropane-1,3′-indolin]-2′-one 2,2,2-trifluoroacetate salt]
14 | < 100 nM | < 100 nM | COc1ccc2c(c1)[C@]1(C[C@H]1c1ccc3c(/C=C/c4ccc5c(c4)CN(C)CC5)n[nH]c3c1)C(=O)N2 [Example A64, (1R,2S)-5′-methoxy-2-(3-((E)-2-(2-methyl-1,2,3,4-tetrahydroisoquinolin-7-yl)vinyl)-1H-indazol-6-yl)spiro[cyclopropane-1,3′-indolin]-2′-one 2,2,2-trifluoroacetate salt]
15 | < 100 nM | < 100 nM | CCN(CC)Cc1c(F)cc(/C=C/c2n[nH]c3cc([C@@H]4C[C@@]45C(=O)Nc4ccc(OC)cc45)ccc23)cc1F [Example A146, (1R,2S)-(E)-2-(3-(4-((diethylamino)methyl)-3,5-difluorostyryl)-1H-indazol-6-yl)-5′-methoxyspiro[cyclopropane-1,3′-indolin]-2′-one 2,2,2-trifluoroacetate]
16 | < 100 nM | < 100 nM | COc1ccc2c(c1)[C@]1(C[C@H]1c1ccc3c(-c4ccc(OCCn5ccnc5)cc4)n[nH]c3c1)C(=O)N2 [Example A108, (1R,2S)-2-(3-(4-(2-(1H-imidazol-1-yl)ethoxy)phenyl)-1H-indazol-6-yl)-5′-methoxyspiro[cyclopropane-1,3′-indolin]-2′-one 2,2,2-trifluoroacetate]
17 | < 100 nM | < 100 nM | Cc1ccc2c(c1)[C@]1(C[C@H]1c1ccc3c(-c4ccc(N5CCN(C)CC5)cc4)n[nH]c3c1)C(=O)N2 (relative stereo) [Example A173, (1R*,2S)-5′-methyl-2-(3-(4-(4-methylpiperazin-1-yl)phenyl)-1H-indazol-6-yl)spiro[cyclopropane-1,3′-indolin]-2′-one 2,2,2-trifluoroacetate]

Row | SMILES | IC50 [1] | IC50 [2]
18 | CN1C(=O)[C@@]2(C[C@H]2c2ccc3c(/C=C/c4ccc(N5CCNCC5)cc4)n[nH]c3c2)c2ccccc21 [Example A90, (1R,2S)-(E)-1′-methyl-2-(3-(4-(piperazin-1-yl)styryl)-1H-indazol-6-yl)spiro[cyclopropane-1,3′-indolin]-2′-one hydrochloride] | < 100 nM | < 100 nM
19 | CN1CCc2cc(-c3n[nH]c4cc([C@@H]5C[C@@]56C(=O)Nc5ccccc56)ccc34)ccc2C1 [Example A76, (1R,2S)-2-(3-(2-methyl-1,2,3,4-tetrahydroisoquinolin-6-yl)-1H-indazol-6-yl)spiro[cyclopropane-1,3′-indolin]-2′-one 2,2,2-trifluoroacetate salt] | < 100 nM | < 100 nM
20 | COc1ccc2c(c1)[C@@]1(C[C@@H]1c1ccc3c(-c4ccc(N5CCN(C)CC5)nc4)n[nH]c3c1)C(=O)N2 [Example A15, (1S,2R)-5′-methoxy-2-(3-(6-(4-methylpiperazin-1-yl)pyridin-3-yl)-1H-indazol-6-yl)spiro[cyclopropane-1,3′-indolin]-2′-one] | < 100 nM | > 1000 nM
21 | CN1CCC(Cc2ccc(/C=C/c3n[nH]c4cc([C@@H]5C[C@@]56C(=O)Nc5ccccc56)ccc34)cc2)CC1 [Example A81, (1R,2S)-(E)-2-(3-(4-((1-methylpiperidin-4-yl)methyl)styryl)-1H-indazol-6-yl)spiro[cyclopropane-1,3′-indolin]-2′-one 2,2,2-trifluoroacetate salt] | < 100 nM | < 100 nM
22 | COc1ccc2c(c1)[C@]1(C[C@H]1c1ccc3c(-c4ccc(N5CCN(C6CCCCC6)CC5)cc4)n[nH]c3c1)C(=O)N2 [Example A193, (1R,2S)-2-(3-(4-(4-cyclohexylpiperazin-1-yl)phenyl)-1H-indazol-6-yl)-5′-methoxyspiro[cyclopropane-1,3′-indolin]-2′-one 2,2,2-trifluoroacetate] | < 100 nM | < 100 nM
23 | COc1ccc2c(c1)[C@]1(C[C@H]1c1ccc3c(/C=C/c4ccc(CC5CCN(C)CC5)cc4)n[nH]c3c1)C(=O)N2 [Example A82, (1R,2S)-(E)-5′-methoxy-2-(3-(4-((1-methylpiperidin-4-yl)methyl)styryl)-1H-indazol-6-yl)spiro[cyclopropane-1,3′-indolin]-2′-one 2,2,2-trifluoroacetate salt] | < 100 nM | < 100 nM
24 | CCN1CCN(c2ccc(-c3n[nH]c4cc([C@@H]5C[C@@]56C(=O)Nc5ccc(OC)cc56)ccc34)cc2)CC1 (relative stereo) [Example A98, (1R*,2S*)-2-(3-(4-(4-ethylpiperazin-1-yl)phenyl)-1H-indazol-6-yl)-5′-methoxyspiro[cyclopropane-1,3′-indolin]-2′-one 2,2,2-trifluoroacetate] | < 100 nM | < 100 nM
25 | CN1C(=O)[C@@]2(C[C@H]2c2ccc3c(/C=C/c4ccc(CN5CCCCC5)cc4)n[nH]c3c2)c2ccccc21 [Example A94, (1R,2S)-(E)-1′-methyl-2-(3-(4-(piperidin-1-ylmethyl)styryl)-1H-indazol-6-yl)spiro[cyclopropane-1,3′-indolin]-2′-one hydrochloride] | < 100 nM | < 100 nM

From US9907800B2, “Kinase inhibitors and method of treating cancer” (University Health Network, priority 2010, dated 2018)
